In this experiment the test system is HEK293T cells carrying the ATF4 luciferase reporter. Kind of experiment: ATF4-Luc assay (in vitro model of vanishing white matter disease). In kind it is cell-based. The conditions noted are these: Homo sapiens, HEK-293T; HEK293T cells with ATF4 luciferase reporter, 1 μg/mL tunicamycin, 7 hours, One Glo luminescence. The method in brief:
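Compound at 200 nM and tunicamycin at 1 μg/mL were given together for 7 h to HEK293T cells stably transduced with an ATF4 5′-UTR-driven firefly luciferase reporter. Read-out by luminescence, reported as EC50.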
For orientation: In a reporter assay the amount or activity of a reporter protein is the signal.

Usually EC50 stands for the concentration that produces a half-maximal response.

As for `O=C(NC12CC(NC(=O)C3COc4cc(Cl)c(Cl)cc4O3)(C1)C2)c1cnc(C(F)F)cn1` (stereo not drawn) [Compound 133, N-{3-[(6,7-dichloro-2,3-dihydro-1,4-benzodioxine-2-carbonyl)amino]bicyclo[1.1.1]pentan-1-yl}-5-(difluoromethyl)pyrazine-2-carboxamide], the EC50 is 10 to 50 nM.

For `Cc1nn(C)cc1S(=O)(=O)N1CC(C(=O)NC23CC(NC(=O)COc4ccc(Cl)c(F)c4)(C2)C3)Oc2ccc(Cl)cc21` (stereo not drawn) [Compound 173, 6-chloro-N-{3-[2-(4-chloro-3-fluorophenoxy)acetamido]bicyclo[1.1.1]pentan-1-yl}-4-(1,3-dimethyl-1H-pyrazole-4-sulfonyl)-3,4-dihydro-2H-1,4-benzoxazine-2-carboxamide], the EC50 lay within 500 to 2000 nM.

For `CS(=O)(=O)CCN1CC(C(=O)NC23CC(NC(=O)COc4ccc(Cl)c(F)c4)(C2)C3)Oc2ccc(Cl)cc21` (stereo not drawn) [Compound 180, 6-chloro-N-{3-[2-(4-chloro-3-fluorophenoxy)acetamido]bicyclo[1.1.1]pentan-1-yl}-4-[2-(methanesulfonyl)ethyl]-3,4-dihydro-2H-1,4-benzoxazine-2-carboxamide], the EC50 lay in the range of 10 to 50 nM.

As to `Cn1cnc(S(=O)(=O)N2CC(C(=O)NC34CC(NC(=O)COc5ccc(Cl)c(F)c5)(C3)C4)Oc3ccc(Cl)cc32)c1` (stereo not drawn) [Compound 165, 6-chloro-N-{3-[2-(4-chloro-3-fluorophenoxy)acetamido]bicyclo[1.1.1]pentan-1-yl}-4-(1-methyl-1H-imidazole-4-sulfonyl)-3,4-dihydro-2H-1,4-benzoxazine-2-carboxamide], the EC50 lay in the range of 10 to 50 nM.

In the case of `O=C(COc1ccc(Cl)c(F)c1)NC12CCC(NC(=O)C3CCc4cc(Cl)ccc4O3)(CC1)[C@@H](O)C2` (stereo partly drawn) [Compound 203, 6-chloro-N-{(2S)-4-[2-(4-chloro-3-fluorophenoxy)acetamido]-2-hydroxybicyclo[2.2.2]octan-1-yl}-3,4-dihydro-2H-1-benzopyran-2-carboxamide], the EC50 was less than 10 nM.

Consider `Cc1ncc(S(=O)(=O)N2CC(C(=O)NC34CC(NC(=O)COc5ccc(Cl)c(F)c5)(C3)C4)Oc3ccc(Cl)cc32)n1C` (stereo not drawn) [Compound 137, 6-chloro-N-{3-[2-(4-chloro-3-fluorophenoxy)acetamido]bicyclo[1.1.1]pentan-1-yl}-4-(1,2-dimethyl-1H-imidazole-5-sulfonyl)-3,4-dihydro-2H-1,4-benzoxazine-2-carboxamide], for which the EC50 was greater than 2000 nM.

With `O=C(COc1ccc(Cl)c(F)c1)NC12CC(NC(=O)C3CN(C(=O)C(F)(F)C(F)(F)F)c4cc(Cl)ccc4O3)(C1)C2` (stereo not drawn) [Compound 178, 6-chloro-N-{3-[2-(4-chloro-3-fluorophenoxy)acetamido]bicyclo[1.1.1]pentan-1-yl}-4-(2,2,3,3,3-pentafluoropropanoyl)-3,4-dihydro-2H-1,4-benzoxazine-2-carboxamide], the EC50 is less than 10 nM.

As to `CSCCC(=O)N1CC(C(=O)NC23CC(NC(=O)COc4ccc(Cl)c(F)c4)(C2)C3)Oc2ccc(Cl)cc21` (stereo not drawn) [Compound 162, 6-chloro-N-{3-[2-(4-chloro-3-fluorophenoxy)acetamido]bicyclo[1.1.1]pentan-1-yl}-4-[3-(methylsulfanyl)propanoyl]-3,4-dihydro-2H-1,4-benzoxazine-2-carboxamide], the EC50 was 50 to 250 nM.

Regarding `O=C(COc1ccc(Cl)c(F)c1)NC12CCC(NC(=O)C3COc4ccccc4O3)(CC1)[C@H](O)C2` (stereo partly drawn) [Compound 123, N-{(2R)-4-[2-(4-chloro-3-fluorophenoxy)acetamido]-2-hydroxybicyclo[2.2.2]octan-1-yl}-2,3-dihydro-1,4-benzodioxine-2-carboxamide], the EC50 lay within 250 to 500 nM.

For the compound `COC(C)(C)CN1CC(C(=O)NC23CC(NC(=O)COc4ccc(Cl)c(F)c4)(C2)C3)Oc2ccc(Cl)cc21` (stereo not drawn) [Compound 187, 6-chloro-N-{3-[2-(4-chloro-3-fluorophenoxy)acetamido]bicyclo[1.1.1]pentan-1-yl}-4-(2-methoxy-2-methylpropyl)-3,4-dihydro-2H-1,4-benzoxazine-2-carboxamide], the EC50 was 10 to 50 nM.

`O=C(COc1ccc(Cl)c(F)c1)NC12CC(NC(=O)[C@H]3CN(C(=O)[C@H]4C[C@H]4F)c4cc(Cl)ccc4O3)(C1)C2` (single isomer, unassigned) [Compound 142]: the EC50 was 50 to 250 nM.

In the case of `CN1C[C@@H](C(=O)NC23CC(NC(=O)COc4ccc(Cl)c(F)c4)(C2)C3)Oc2ccc(Cl)cc21` (single isomer, unassigned) [Compound 104], the EC50 was less than 10 nM.

For the compound `O=C(COc1ccc(Cl)c(F)c1)NC12CCC(NC(=O)[C@H]3CCc4cc(F)ccc4O3)(CC1)[C@@H](O)C2` [Compound 202, (2R)—N-{(2S)-4-[2-(4-chloro-3-fluorophenoxy)acetamido]-2-hydroxybicyclo[2.2.2]octan-1-yl}-6-fluoro-3,4-dihydro-2H-1-benzopyran-2-carboxamide], the EC50 is less than 10 nM.

With `O=C(COc1ccc(Cl)c(F)c1)NC12CC(NC(=O)C3CN(C(=O)C4CC4(F)F)c4cc(Cl)ccc4O3)(C1)C2` (stereo not drawn) [Compound 176, 6-chloro-N-{3-[2-(4-chloro-3-fluorophenoxy)acetamido]bicyclo[1.1.1]pentan-1-yl}-4-(2,2-difluorocyclopropane-1-carbonyl)-3,4-dihydro-2H-1,4-benzoxazine-2-carboxamide], the EC50 lay in the range of 250 to 500 nM.

As for `CN1CC(C(=O)NC23CC(NC(=O)COc4ccc(Cl)c(F)c4)(C2)C3)Oc2ccc(Cl)cc21` (stereo not drawn) [Compound 112, 6-chloro-N-{3-[2-(4-chloro-3-fluorophenoxy)acetamido]bicyclo[1.1.1]pentan-1-yl}-4-methyl-3,4-dihydro-2H-1,4-benzoxazine-2-carboxamide], the EC50 is less than 10 nM.

The values are drawn from patent US20210169892A1, “MODULATORS OF THE INTEGRATED STRESS PATHWAY” (Calico Life Sciences LLC, priority 2017, published 2021).
